Data taken from article PMC12768458 (European journal of medicinal chemistry, 2025).

Legend:
[1] = test system: colony forming megakaryocyte; conditions: CFU-Mk ref 14; cited from earlier work
BRD3-D2 = BRD3-D2 (Homo sapiens, UniProt Q15059); assay: differential scanning fluorimetry; format: binding; conditions: DSF
BRD2-D2 = BRD2-D2 (Homo sapiens, UniProt P25440); assay: differential scanning fluorimetry; format: binding; conditions: DSF
BET bromodomains = assay: differential scanning fluorimetry; format: binding; conditions: DSF, majority of BET bromodomains
NLuc-BRD4-D1 = NLuc-BRD4-D1 (Homo sapiens, UniProt O60885); assay: live-cell NanoBRET competition assay in HEK293T; format: cell-based; conditions: 1.25 μM, 2 h at 37 °C
CXCL1 mRNA expression = conditions: LPS-induced TSECs, prior work ref 27; cited from earlier work
CCL2 mRNA expression = conditions: LPS-induced TSECs, prior work ref 27; cited from earlier work

Chain of BRD3-D2 (Q15059 306-415 limits assumed): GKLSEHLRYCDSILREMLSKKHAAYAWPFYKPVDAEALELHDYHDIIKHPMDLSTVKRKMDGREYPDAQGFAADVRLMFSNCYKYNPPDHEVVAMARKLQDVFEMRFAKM
Chain of BRD2-D2 (P25440 344-453 limits assumed): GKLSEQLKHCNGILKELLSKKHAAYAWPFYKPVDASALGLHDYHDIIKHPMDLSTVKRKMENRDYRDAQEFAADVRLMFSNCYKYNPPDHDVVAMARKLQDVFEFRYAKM

Row | SMILES | less toxic compared to ABBV-075 [1] | stabilization in melting temperature (BRD3-D2) | stabilization in melting temperature (BRD2-D2) | stabilization in melting temperature (BET bromodomains) | % inhibition of BRD4-D1 (NLuc-BRD4-D1) | CXCL1 expression, in words (CXCL1 mRNA expression) | CCL2 expression, in words (CCL2 mRNA expression)
1 | CCNC(=O)c1cc2c(-c3cc(C(C)(C)O)ccc3Oc3c(C)cc(F)cc3C)cn(C)c(=O)c2[nH]1 [ABBV-744] | 18 fold | – | – | – | – | – | –
2 | COc1cc2c(cc1-c1c(C)noc1C)ncc1[nH]c(=O)n([C@H](C)c3ccccn3)c12 [IBET-151] | – | 3.96 ±0.09 °C | 3.70 ±0.12 °C | > 6 °C | 85 ±6% | significant efficacy in reducing the downstream expression of CXCL1 and CCL2 | decrease in CCL2 mRNA levels comparable to control levels
3 | CC(=O)Nc1c(F)cc(C(=O)N[C@H]2CC[C@H](O)CC2)cc1O[C@@H](C)c1ccccc1 [iBET-BD2] | – | – | – | – | – | does not significantly reduce the expression of CXCL1 | –
